From patent US8937091B2 (Japan Science and Technology Agency, priority 2009, dated 2015)
Where two headings read alike, the source gives them in different places.

Experiments:
[1] = target: TGase (Cavia porcellus, UniProt P08587); type: biochemical; details: for TG level: level with DMSO control designated as 100
Description: An enzyme reaction solution (0.1 ml) (100 mM HEPES-NaOH, pH 7.5, 1 mM CaCl2, 20 μM monodansyl cadaverine, 0.05 mg/ml N,N-dimethylcasein, 5 μg/ml TGase) was introduced into wells of a 96-well plate (Nunc, 96 Well Black Plate with Clear Bottom). A test compound was added in concentrations of 0.3, 1.0, 3.0, 10, and 30 μM. The solution and the compound were sufficiently mixed while preventing foaming. The plate was set in the fluorescence drug screening system FDSS 3000 (Hamamatsu Photonics K.K.). TGase-inhibiting activity of the compound was calculated by assaying changes in fluorescence wavelength (at 340 nm) per unit time. […] The assay level at which TGase activity decreased by half in the presence of the test compound was designated as TG 50.
Hereafter, the numerals in parentheses written after the TG level, the SOCE level, and the IICR level correspond to the test compound concentrations. The number following the name of each title compound used in the Examples below represents a compound ID number designated arbitrarily by the present inventors.

[2] = tested on: SOCE (store operated calcium entry) in CHO cells; assay: Assay of SOCE (store operated calcium entry)-inhibiting action; type: cell-based, Chinese hamster; details: CHO cells, thapsigargin
In short: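 CHO cells in calcium-free BSS received compound, then 1 μM thapsigargin 2 min later to deplete stores; after 9 min, 2 mM calcium chloride (final) added. Percent inhibition of the rise in intracellular calcium determined at various compound concentrations.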

[3] = tested on: IICR (IP3 induced calcium release) in CHO cells; assay: Assay of IICR (IP3 induced calcium release)-inhibiting action; type: cell-based, Chinese hamster; details: for IICR level (percentage of inhibition): CHO cells, 10 μM ATP
In short: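 CHO cell medium replaced with calcium-containing BSS; compound added 1 min later, then 10 μM ATP after a further 2 min. Percent inhibition of the ATP-evoked rise in intracellular calcium determined at each compound concentration.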

N,N-bis(2-(4-bromobenzoyl)ethyl)cystinemethylester [Example 392]
TG level ([1]; test compound 3 μmol): 25 | TG level ([1]; test compound 10 μmol): 3.7 | TG level ([1]; test compound 30 μmol): 2.3 | SOCE level (percentage of inhibition) ([2]; test compound 10 μmol): 20% | SOCE level (percentage of inhibition) ([2]; test compound 30 μmol): 40% | SOCE level (percentage of inhibition) ([2]; test compound 100 μmol): 50% | IICR level (percentage of inhibition) ([3]; test compound 10 μmol): 58% | IICR level (percentage of inhibition) ([3]; test compound 30 μmol): 61% | IICR level (percentage of inhibition) ([3]; test compound 100 μmol): 76%

2-bis(N-2-hydroxyethyl)aminoethylferrocenylketone [Example 288]
TG level ([1]; test compound 3 μmol): 94.9 | TG level ([1]; test compound 30 μmol): 44.1 | SOCE level (percentage of inhibition) ([2]; test compound 30 μmol): 10% | SOCE level (percentage of inhibition) ([2]; test compound 100 μmol): 40% | IICR level (percentage of inhibition) ([3]; test compound 10 μmol): 40% | IICR level (percentage of inhibition) ([3]; test compound 30 μmol): 50% | IICR level (percentage of inhibition) ([3]; test compound 100 μmol): 60%

O=C(CCNCCSSCCNCCC(=O)c1ccco1)c1ccco1 [Example 372]
TG level ([1]; test compound 3 μmol): 13 | TG level ([1]; test compound 30 μmol): −1.5 | SOCE level (percentage of inhibition) ([2]; test compound 10 μmol): 0% | SOCE level (percentage of inhibition) ([2]; test compound 30 μmol): 0% | SOCE level (percentage of inhibition) ([2]; test compound 100 μmol): 15% | IICR level (percentage of inhibition) ([3]; test compound 10 μmol): 0% | IICR level (percentage of inhibition) ([3]; test compound 30 μmol): 54% | IICR level (percentage of inhibition) ([3]; test compound 100 μmol): 58%

N,N-bis(2-naphthoylethyl)cystinemethylester [Example 391]
TG level ([1]; test compound 3 μmol): 33 | TG level ([1]; test compound 10 μmol): 6.4 | TG level ([1]; test compound 30 μmol): 29 | SOCE level (percentage of inhibition) ([2]; test compound 10 μmol): 20% | SOCE level (percentage of inhibition) ([2]; test compound 30 μmol): 40% | SOCE level (percentage of inhibition) ([2]; test compound 100 μmol): 50% | IICR level (percentage of inhibition) ([3]; test compound 10 μmol): 6% | IICR level (percentage of inhibition) ([3]; test compound 30 μmol): 37% | IICR level (percentage of inhibition) ([3]; test compound 100 μmol): 41%

N,N-bis(2-(4-pyridinoyl)ethyl)cystinemethylester [Example 393]
TG level ([1]; test compound 3 μmol): 54 | TG level ([1]; test compound 10 μmol): 16 | TG level ([1]; test compound 30 μmol): 3.5 | SOCE level (percentage of inhibition) ([2]; test compound 10 μmol): 20% | SOCE level (percentage of inhibition) ([2]; test compound 30 μmol): 40% | SOCE level (percentage of inhibition) ([2]; test compound 100 μmol): 50% | IICR level (percentage of inhibition) ([3]; test compound 10 μmol): 44% | IICR level (percentage of inhibition) ([3]; test compound 30 μmol): 42% | IICR level (percentage of inhibition) ([3]; test compound 100 μmol): 21%

Cc1ccsc1C(=O)CCN(Cc1ccccc1)C(C)(C)C [Example 8816, 2-(N-benzyl-t-butyl)aminoethyl-3-methyl-2-thienylketone]
TG-activity-inhibiting action or protein-crosslinking-inhibiting action (in words) [1]: strongly | IICR-inhibiting activity compared with SOCE-inhibiting activity (in words) [3]: higher than SOCE-inhibiting activity

CC(C)(C)N(CCC(=O)c1cccs1)Cc1ccccc1 [Example 8638, 2-(N-t-butylbenzyl)aminoethyl-2-thiophenylketone]
TG-activity-inhibiting action or protein-crosslinking-inhibiting action (in words) [1]: strongly | IICR-inhibiting activity compared with SOCE-inhibiting activity (in words) [3]: higher than SOCE-inhibiting activity

CC(C)(C)N(CCC(=O)c1cccnc1)Cc1ccccc1 [Example 8702, 2-(N-benzyl-t-butyl)aminoethyl-3-pyridylketone]
TG-activity-inhibiting action or protein-crosslinking-inhibiting action (in words) [1]: strongly | IICR-inhibiting activity compared with SOCE-inhibiting activity (in words) [3]: higher than SOCE-inhibiting activity

Cc1ccc(C(=O)CCN(Cc2ccccc2)C(C)(C)C)s1 [Example 8818, 2-(N-benzyl-t-butyl)aminoethyl-5-methyl-2-thienylketone]
TG-activity-inhibiting action or protein-crosslinking-inhibiting action (in words) [1]: strongly | IICR-inhibiting activity compared with SOCE-inhibiting activity (in words) [3]: higher than SOCE-inhibiting activity

Cc1csc(C(=O)CCN(Cc2ccccc2)C(C)(C)C)c1 [Example 8817, 2-(N-benzyl-t-butyl)aminoethyl-4-methyl-2-thienylketone]
TG-activity-inhibiting action or protein-crosslinking-inhibiting action (in words) [1]: strongly | IICR-inhibiting activity compared with SOCE-inhibiting activity (in words) [3]: higher than SOCE-inhibiting activity

CC(C)N(CCC(=O)c1ccc(Cc2ccccc2)cc1)Cc1ccccc1 [Example 8285, 2-(N-isopropylbenzyl)aminoethyl-4-benzylphenylketone]
TG-activity-inhibiting action or protein-crosslinking-inhibiting action (in words) [1]: strongly | IICR-inhibiting activity compared with SOCE-inhibiting activity (in words) [3]: higher than SOCE-inhibiting activity

CCCCN(CCCC)CCC(=O)c1ccc(Br)s1 [Example 8848, 2-(N,N-di-n-butyl)aminoethyl-5-bromo-2-thienylketone]
TG-activity-inhibiting action or protein-crosslinking-inhibiting action (in words) [1]: strongly | IICR-inhibiting activity compared with SOCE-inhibiting activity (in words) [3]: higher than SOCE-inhibiting activity

CC(C)N(CCC(=O)c1ccc(Br)s1)Cc1ccccc1 [Example 8768, 2-(N-isopropylbenzyl)aminoethyl-5-bromo-2-thienylketone]
TG-activity-inhibiting action or protein-crosslinking-inhibiting action (in words) [1]: strongly | IICR-inhibiting activity compared with SOCE-inhibiting activity (in words) [3]: higher than SOCE-inhibiting activity

CC(C)N(CCC(=O)c1ccccn1)Cc1ccccc1 [Example 8305, 2-(N-isopropylbenzyl)aminoethyl-2-pyridylketone]
TG-activity-inhibiting action or protein-crosslinking-inhibiting action (in words) [1]: strongly | IICR-inhibiting activity compared with SOCE-inhibiting activity (in words) [3]: higher than SOCE-inhibiting activity

O=C(CCN(CCO)Cc1ccccc1)c1nccs1 [Example 8766, 2-(N-2-hydroxyethylbenzyl)aminoethyl-2-thiazolylketone]
TG-activity-inhibiting action or protein-crosslinking-inhibiting action (in words) [1]: strongly | IICR-inhibiting activity compared with SOCE-inhibiting activity (in words) [3]: higher than SOCE-inhibiting activity

CC(C)(C)N(CCC(=O)c1cc2ccccc2s1)Cc1ccccc1 [Example 8761, 2-(N-t-butylbenzyl)aminoethyl-2-benzothienylketone]
TG-activity-inhibiting action or protein-crosslinking-inhibiting action (in words) [1]: strongly | IICR-inhibiting activity compared with SOCE-inhibiting activity (in words) [3]: higher than SOCE-inhibiting activity

2-(N-t-butylbenzyl)aminoethyl-5-bromo-2-thiophenylketone [Example 8778]
TG-activity-inhibiting action or protein-crosslinking-inhibiting action (in words) [1]: strongly | IICR-inhibiting activity compared with SOCE-inhibiting activity (in words) [3]: higher than SOCE-inhibiting activity

O=C(CCN(CCO)Cc1ccccc1)c1cnccn1 [Example 8397, 2-(N-benzylhydroxyethyl)aminoethyl-2-pyrazylketone]
TG-activity-inhibiting action or protein-crosslinking-inhibiting action (in words) [1]: strongly | IICR-inhibiting activity compared with SOCE-inhibiting activity (in words) [3]: higher than SOCE-inhibiting activity

CN(CCO)CCC(=O)c1ccco1 [Example 8707, 2-(N-2-hydroxyethylmethyl)aminoethyl-2-furylketone]
TG-activity-inhibiting action or protein-crosslinking-inhibiting action (in words) [1]: strongly | IICR-inhibiting activity compared with SOCE-inhibiting activity (in words) [3]: higher than SOCE-inhibiting activity

CCN(CCC(=O)c1nccs1)Cc1ccccc1 [Example 8765, 2-(N-ethylbenzyl)aminoethyl-2-thiazolylketone]
TG-activity-inhibiting action or protein-crosslinking-inhibiting action (in words) [1]: strongly | IICR-inhibiting activity compared with SOCE-inhibiting activity (in words) [3]: higher than SOCE-inhibiting activity

CCc1nccnc1C(=O)CCN(Cc1ccccc1)C(C)C [Example 8656, 2-(N-isopropylbenzyl)aminoethyl-2-(3-ethyl)-pyrazylketone]
TG-activity-inhibiting action or protein-crosslinking-inhibiting action (in words) [1]: strongly | IICR-inhibiting activity compared with SOCE-inhibiting activity (in words) [3]: higher than SOCE-inhibiting activity

CCc1nccnc1C(=O)CCN(Cc1ccccc1)C(C)(C)C [Example 8658, 2-(N-t-butylbenzyl)aminoethyl-2-(3-ethyl)-pyrazylketone]
TG-activity-inhibiting action or protein-crosslinking-inhibiting action (in words) [1]: strongly | IICR-inhibiting activity compared with SOCE-inhibiting activity (in words) [3]: higher than SOCE-inhibiting activity

CC(C)(C)N(CCC(=O)c1nccs1)Cc1ccccc1 [Example 8729, 2-(N-benzyl-t-butyl)aminoethyl-2-thiazolylketone]
TG-activity-inhibiting action or protein-crosslinking-inhibiting action (in words) [1]: strongly | IICR-inhibiting activity compared with SOCE-inhibiting activity (in words) [3]: higher than SOCE-inhibiting activity
